Here are results for 11 compounds from US8008354B2, “Death receptor sensitizing compounds and methods of use therefor” (Burnham Institute for Medical Research, priority 2006, dated 2011).

Assay [1] has as its system PPC-1 cells. The assay can be described thus: MTT cell viability of PPC-1 cells treated with compound with or without CH-11 anti-FAS antibody. Type of assay: cell-based. Conditions: for IC50: read-out: LD50 (μM) PPCl; for LD50 (μM) (PPCl, CH-11): PPC-1 cells with CH-11 100 ng/mL, MTT 24 hours, LD50 = concentration that reduces cell viability by 50%. The method, then: FIGS. 2A-C. […] PPC-1 cells (1×10^4) were seeded in 96 well plates. The next day, cells were treated with increasing concentrations of the sensitizing compounds with (open squares) and without (closed squares) CH-11 antibody (100 ng/mL). Cell viability was measured 24 hours later by MTT assay. Cell viability is expressed as a mean percentage of untreated cells+SD (n=3). The Chembridge identification numbers of the compounds are provided.
High throughput screening. […] PPC-1 cells (1×10^4) were seeded overnight into 96 well, flat-bottom plates (Costar, Cambridge, Mass.) in 100 μL of medium containing 2.5% FCS. […] CH-11 antibody (100 ng/mL) was then added, and the cells were incubated for 24 hours before assessing cell viability by a 3-(4,5-Dimethylthiazol-2-yl)-2,5-diphenyltetrazolium Bromide (MTT) dye reduction assay (Sigma).
Cell death assays. […] Absorbance readings were plotted against a standard curve to derive the corresponding cell number, and cell viability was expressed as a percentage relative to untreated cells.

Assay [2] concerns FLIP. In words: FLIP protein levels by SDS-PAGE/immunoblotting. Type of assay: cell-based, human. The note with it: PPC-1 cells, 30 μM, with or without CH-11, 24 hours, long isoform. The method, then:
FIG. 7. Effect of FAS-sensitizing compounds on levels of FLIP protein and DISC activation. (A) PPC-1 cells (2×10^5) were seeded into 35 mm plates and treated the next day with various FAS-sensitizing compounds (30 μM), with (+) or without (−) CH-11 antibody (100 ng/mL). As a positive control, cells were treated with CDDO (5 μM). Cell lysates were prepared 24 hours later, normalized for total protein content, and analyzed by SDS-PAGE/immunoblotting using antibodies specific for FLIP or a-tubulin. (B) PPC-1, OVCAR-3, T47D, MDA-MB-468 and DU 145 cells (2×10^5) were seeded into 35 mm plates and treated the next day with 5809354 (40 μM). Cell lysates were prepared 24 hours after treatment, normalized for total protein and analyzed by SDS-PAGE/immunoblotting using antibodies specific for FLIP or β-actin. (C) PPC-1, OVCAR-3, T47D, and DU 145 cells (2×10^5) were seeded into 35 mm plates and treated the next day with 5809354 (40 μM) (black bars) or buffer control (white bars). mRNA was extracted 24 hours after treatment. Levels of the long isoform of FLIP and GAPDH were detected by quantitative RT-PCR. Levels of FLIP were normalized for GAPDH expression and expressed as a mean fold change+SD over buffer treated cells. (D) PPC-1 cells (2×10^5) were seeded into 35 mm plates and treated the next day with various FAS-sensitizing compounds (30 μM) with (+) or without (−) CH-11 (100 ng/mL). Cell lysates were prepared 24 hours after treatment, normalized for total protein, and analyzed by SDS-PAGE/immunoblotting using antibodies specific for caspase-8 and β-actin.
FIG. 13. Small molecule down-regulation of FLIP sensitizes prostate cancer cells to anoikis. (A) PPC-1 cells were seeded overnight in adherent conditions and then treated with increasing concentrations of 5809354 for 16 hours. After incubation, cells were harvested. Total cellular RNA was extracted and mRNA levels of the long isoform of FLIP (FLIPL), the short isoform of FLIP (FLIPS), or rRNA levels of 18S were detected by real-time RT-PCR. Data were normalized using the ΔΔCT method and expressed as the mean±SEM percent of […] expression relative to untreated controls. (B) PPC-1 cells were cultured and treated as in panel A. Total cellular protein was isolated and analyzed by SDS-PAGE immunoblotting using anti-FLIP and anti-Actin antibodies. (C) PPC-1 cells were seeded overnight in adherent conditions and then exposed to increasing concentrations of 5809354 in the presence or absence of Fas-activating antibody (CH-11, 100 ng/mL). Thirty hours after incubation, cell viability was determined using the MTS assay. Data represents the mean±SEM of percent of viable cells. (D) PPC-1 cells were seeded overnight in adherent or suspension conditions and then treated with increasing concentrations of 5809354 for 30 hours. After incubation, apoptosis was measured by flow cytometry to detect cell surface annexin V expression and PI. Data represents the mean±SEM of percent of viable cells. (E) Cells were harvested, fixed, stained with DAPI, and nuclear morphology analyzed by fluorescence microscopy. Arrowheads refer to fragmented nuclei indicative of apoptosis. […] Thirty hours after incubation, cells were harvested and equal volumes plated in a colony formation assay. One week later, cells were stained with methylene blue and the number of colonies counted. Data represents the mean ±SEM percent of colonies relative to untreated controls.
Immunoblot analysis. Protein extracts were obtained by washing cells with phosphate-buffered saline (PBS) [pH 7.4] and suspending the cells in lysis buffer [10 mM Tris (pH 7.4), 150 mM NaCl, 0.1% Triton X-100, 0.5% sodium deoxycholate, and 5 mM EDTA] containing protease inhibitors (Complete tablets; Roche, Indianapolis, Ind.). Immunoblot assays were performed as described in Carter et al. (2005). […]
(In western blotting, separated proteins are transferred to a membrane and probed.)

Setting [3] is: Homo sapiens, PPC-1, 24 h, PPC-1 cells, compound alone without CH-11, MTT 24 hours.

Structures can show the parent of a compound that is named as a salt. Where two headings read alike, the source gives them in different places.

As to `Br.Cc1ccc(Cn2c(=N)n(CC(=O)c3cc(C(C)(C)C)c(O)c(C(C)(C)C)c3)c3ccccc32)cc1` [compound 5651311, 1-(3,5-di-tert-butyl-4-hydroxyphenyl)-2-(2-imino-3-(4-methylbenzyl)-2,3-dihydro-1H-benzo[d]imidazol-1-yl)ethanone hydrobromide], the IC50 in assay [1] (setting [3]) came out at 19 µM. Further, the “LD50 (μM) (PPCl, CH-11)” value in assay [1] was 9 µM.
As to `CC(C)(C)c1cc(C(=O)Cn2c(=N)n(CCN3CCCCC3)c3ccccc32)cc(C(C)(C)C)c1O.Cl` [compound 5529457, 1-(3,5-di-tert-butyl-4-hydroxyphenyl)-2-(2-imino-3-(2-(piperidin-1-yl)ethyl)-2,3-dihydro-1H-benzo[d]imidazol-1-yl)ethanone hydrochloride], in assay [1] (setting [3]), the IC50 worked out at 7.5 µM. Besides, the “LD50 (μM) (PPCl, CH-11)” value in assay [1] turned out to be 3.7 µM.
With `Cn1c(=N)n(CC(=O)c2cc(C(C)(C)C)c(O)c(C(C)(C)C)c2)c2ccccc21` [compound 5541203, 1-(3,5-di-tert-butyl-4-hydroxyphenyl)-2-(2-imino-3-methyl-2,3-dihydro-1H-benzo[d]imidazol-1-yl)ethanone hydrobromide], the IC50 was 45 µM in assay [1] (setting [3]) and 45.4 µM in assay [1] (PPC-1 cells, compound alone without CH-11, MTT 24 hours; hydrobromide)). In assay [1] (Homo sapiens, PPC-1, with anti-FAS antibody, read-out: EC50 as a FAS-sensitizer in PPC1 cells), the EC50 (as a rule, the midpoint of the concentration-response curve) was found to be 25.7 µM. The “LD50 (μM) (PPCl, CH-11)” value in assay [1] was found to be 25.7 µM. Moreover, in assay [2], the “levels of FLIP protein” value is reported as “had little effect”.
With `Br.CC(C)(C)c1cc(C(=O)Cn2c(=N)n(Cc3ccccc3)c3ccccc32)cc(C(C)(C)C)c1O` [compound 5657593, 2-(3-benzyl-2-imino-2,3-dihydro-1H-benzo[d]imidazol-1-yl)-1-(3,5-di-tert-butyl-4-hydroxyphenyl)ethanone hydrobromide], the IC50 in assay [1] (setting [3]) was determined as 9.1 µM. In assay [1], the “LD50 (μM) (PPCl, CH-11)” value was determined as 3.4 µM.
Take `C/C(CC(=O)Nc1ccc(Cl)c(C(F)(F)F)c1)=N\NC(=O)c1cnccn1` [N-(4-Chloro-3-trifluoromethyl-phenyl)-3-[(pyrazine-2-carbonyl)-hydrazono]-butyramide]: the IC50 in assay [1] (setting [3]) was determined as 67 ± 3 µM. Also, in assay [1], the “LD50 (μM) (PPCl, CH-11)” value worked out at 11 ± 3 µM.
The like results for `O=C(CCc1ccccc1)Nc1ccc(Cl)c(C(F)(F)F)c1` [N-[4-chloro-3-(trifluoromethyl)-phenyl]-3-phenyl-proionamide] were, in that order, 85 ± 3 µM and 11 ± 1 µM.
`O=C(Cc1ccc(Cl)cc1)N1CCN(C/C=C/c2ccccc2)CC1` [compound 5703229, 1-[(4-chlorophenyl)acetyl]-4-[(2e)3-phenylprop-2-enyl]piperazine]: the IC50 in assay [1] (Homo sapiens, PPC-1, 24 h) was found to be 50 µM. Also, in assay [1], the “LD50 (μM) (PPCl, CH-11)” value was 34+4 μM.
Regarding `O=C(CCc1ccccc1)Nc1cc(C(F)(F)F)ccc1Cl` [N-[2-chloro-5-(trifluoromethyl)phenyl]-3-phenylpropanamide], the IC50 in assay [1] (setting [3]) was greater than 100 µM. Besides, in assay [1], the “LD50 (μM) (PPCl, CH-11)” value was greater than 100 µM.
For the compound `O=C(Nc1ccc(Cl)c(C(F)(F)F)c1)c1cccs1` [N-[4-chloro-3-(trifluoromethyl)phenyl]-2-thiophenecarboxamide], in assay [1] (setting [3]), the IC50 was 96 ± 1 µM. Moreover, the “LD50 (μM) (PPCl, CH-11)” value in assay [1] worked out at 35 ± 11 µM.
Regarding `O=C(CCc1ccccc1)Nc1ccc(Cl)cc1C(F)(F)F` [N-[4-chloro-2-(trifluoromethyl)phenyl]-3-phenylpropanamide], the IC50 in assay [1] (setting [3]) was greater than 100 µM. For the same compound, in assay [1], the “LD50 (μM) (PPCl, CH-11)” value is greater than 100 µM.
Consider `CC(=O)CC(=O)Nc1cc(C(F)(F)F)ccc1Cl` [N-[2-chloro-5-(trifluoromethyl)phenyl]-3-oxobutanamide], for which, in assay [1] (setting [3]), the IC50 is 75 ± 1 µM. Moreover, the “LD50 (μM) (PPCl, CH-11)” value in assay [1] came to 65 ± 5 µM.
